Values after ≈ are worked out from the molar mass of the structure shown. Blank lines part the entries; values can stand above or below the compound they belong to.
Assays:
Format in all cases: functional
[1] = tested on: Staphylococcus aureus; assay: Antibacterial activity against methicillin-resistant Staphylococcus aureus assessed as bacterial growth inhibition by agar dilution method
[2] = tested on: Pseudomonas aeruginosa; assay: Antibacterial activity against Pseudomonas aeruginosa ATCC 27853 assessed as bacterial growth inhibition incubated for 18 to 24 hrs by turbidimetry; conditions: time 18-24 hrs
[3] = tested on: Escherichia coli; assay: Antibacterial activity against Escherichia coli ATCC 25922 assessed as bacterial growth inhibition incubated for 18 to 24 hrs by turbidimetry; conditions: time 18-24 hrs
[4] = tested on: Bacillus subtilis; assay: Antibacterial activity against Bacillus subtilis ATCC 6633 assessed as bacterial growth inhibition incubated for 18 to 24 hrs by turbidimetry; conditions: time 18-24 hrs
[5] = tested on: Staphylococcus aureus; assay: Antibacterial activity against Staphylococcus aureus ATCC 25923 assessed as bacterial growth inhibition incubated for 18 to 24 hrs by turbidimetry; conditions: time 18-24 hrs
[6] = tested on: Klebsiella aerogenes; assay: Antibacterial activity against Enterobacter aerogenes assessed as bacterial growth inhibition
[7] = tested on: Providencia rettgeri; assay: Antibacterial activity against Providencia rettgeri assessed as bacterial growth inhibition
[8] = tested on: Escherichia coli; assay: Antibacterial activity against Escherichia coli assessed as bacterial growth inhibition
[9] = tested on: Klebsiella pneumoniae; assay: Antibacterial activity against Klebsiella pneumoniae producing extended spectrum beta-lactamases assessed as bacterial growth inhibition
[10] = tested on: Escherichia coli; assay: Antibacterial activity against Escherichia coli producing extended spectrum beta-lactamases assessed as bacterial growth inhibition
[11] = tested on: Enterococcus faecium; assay: Antibacterial activity against Enterococcus faecium assessed as bacterial growth inhibition
[12] = tested on: Staphylococcus epidermidis; assay: Antibacterial activity against methicillin-sensitive Staphylococcus epidermidis assessed as bacterial growth inhibition
[13] = tested on: Klebsiella pneumoniae; assay: Antibacterial activity against Klebsiella pneumoniae assessed as bacterial growth inhibition
[14] = tested on: Enterobacter cloacae; assay: Antibacterial activity against Enterobacter cloacae assessed as bacterial growth inhibition
[15] = tested on: Staphylococcus aureus; assay: Antibacterial activity against methicillin-sensitive Staphylococcus aureus assessed as bacterial growth inhibition
[16] = tested on: Enterococcus faecalis; assay: Antibacterial activity against Enterococcus faecalis assessed as bacterial growth inhibition
[17] = tested on: Pseudomonas aeruginosa; assay: Antibacterial activity against Pseudomonas aeruginosa assessed as bacterial growth inhibition
[18] = tested on: Proteus vulgaris; assay: Antibacterial activity against Proteus vulgaris assessed as bacterial growth inhibition
[19] = tested on: Staphylococcus aureus; assay: Antibacterial activity against multidrug-resistant Staphylococcus aureus clinical isolate assessed as bacterial growth inhibition by broth dilution method
[20] = tested on: Staphylococcus aureus; assay: Potency index, ratio of Norfloxacin MIC to test compound MIC for antibacterial activity against Staphylococcus aureus assessed as bacterial growth inhibition by broth dilution method
[21] = tested on: Staphylococcus aureus; assay: Antibacterial activity against Staphylococcus aureus assessed as bacterial growth inhibition by broth dilution method
[22] = tested on: Escherichia coli; assay: Antibacterial activity against multidrug-resistant Escherichia coli assessed as bacterial growth inhibition incubated for 24 hrs by […] method
[23] = tested on: Klebsiella pneumoniae; assay: Antibacterial activity against Klebsiella pneumoniae assessed as bacterial growth inhibition by broth microdilution method
[24] = tested on: Escherichia coli; assay: Antibacterial activity against Escherichia coli assessed as bacterial growth inhibition by broth microdilution method
[25] = tested on: Staphylococcus aureus; assay: Antibacterial activity against Staphylococcus aureus assessed as bacterial growth inhibition by broth microdilution method
[26] = tested on: Pseudomonas aeruginosa; assay: Antibacterial activity against Pseudomonas aeruginosa ATCC 10145 assessed as bacterial growth inhibition measured for 5 to 20 mins by broth dilution method; conditions: time 5-20 min
[27] = tested on: Staphylococcus aureus; assay: Antibacterial activity against Staphylococcus aureus ATCC 43300 assessed as bacterial growth inhibition measured for 5 to 20 mins by broth dilution method; conditions: time 5-20 min

SMILES: COc1cc(/C=C/c2ccc(OCc3cn(-c4ccc(C(=O)O)cc4)nn3)cc2)cc(OC)c1
MIC [1]: 1.2 µg/mL (≈ 2.62 µM)

MIC [2]: 15.6 µg/mL (≈ 30.1 µM)
MIC [3]: 15.6 µg/mL (≈ 30.1 µM)
MIC [4]: 15.6 µg/mL (≈ 30.1 µM)
MIC [5]: 15.6 µg/mL (≈ 30.1 µM)
SMILES: Nc1c(C(=O)N2CCN(c3cc4c(cc3F)c(=O)c(C(=O)O)cn4C3CC3)CC2)nnn1-c1ccccc1

SMILES: CO/N=C1\C(=O)N(Cc2cn(CC(=O)N3CCC[C@@H]4CN(c5c(F)cc6c(=O)c(C(=O)O)cn(C7CC7)c6c5OC)C[C@@H]43)nn2)c2ccc(C)cc21
MIC [6]: ≤ 0.03 µg/mL
MIC [7]: ≤ 0.03 µg/mL
MIC [8]: ≤ 0.03 µg/mL
MIC [9]: ≤ 0.03 µg/mL
MIC [10]: ≤ 0.03 µg/mL
MIC [11]: ≤ 0.03 µg/mL
MIC [12]: ≤ 0.03 µg/mL
MIC [13]: ≤ 0.03 µg/mL
MIC [14]: ≤ 0.03 µg/mL
MIC [15]: ≤ 0.03 µg/mL
MIC [16]: ≤ 0.03 µg/mL
MIC [17]: ≤ 0.03 µg/mL
MIC [18]: ≤ 0.03 µg/mL

SMILES: CC(=O)OC[C@@H]1O[C@H](n2cc(Cn3c(=O)cc(C)n(CCCCCCCC[P+](c4ccccc4)(c4ccccc4)c4ccccc4)c3=O)nn2)[C@@H](OC(C)=O)[C@H]1OC(C)=O.[Br-]
MIC [19]: 1 µg/mL
Ratio [20]: 7.5
MIC [21]: 1 µg/mL

SMILES: c1ccc(-n2cc(COc3ccc(-c4nc5ccccc5s4)cc3)nn2)cc1
MIC [22]: 7.99 µg/mL (≈ 20.8 µM)

SMILES: CC(=O)OC[C@@H]1O[C@H](n2cc(Cn3c(=O)c4ccccc4n(CCCCCCCCCC[P+](c4ccccc4)(c4ccccc4)c4ccccc4)c3=O)nn2)[C@@H](OC(C)=O)[C@H]1OC(C)=O.[Br-]
MIC [19]: 1 µg/mL
Ratio [20]: 7.5
MIC [21]: 1 µg/mL

MIC [23]: 25 µg/mL (≈ 39.5 µM)
MIC [24]: 25 µg/mL (≈ 39.5 µM)
MIC [25]: 25 µg/mL (≈ 39.5 µM)
SMILES: COC(=O)[C@H](Cc1cn(Cc2cn(-c3ccccc3[N+](=O)[O-])nn2)c2ccccc12)NC(=O)[C@@H](C)c1ccc2cc(OC)ccc2c1

MIC [26]: 5 µg/mL (≈ 7.19 µM)
MIC [27]: 5 µg/mL (≈ 7.19 µM)
SMILES: COCCOCCOCCOC(=O)c1cccc(-n2cc(CO[C@@H]3O[C@H](COC(C)=O)[C@H](OC(C)=O)[C@H](OC(C)=O)[C@H]3OC(C)=O)nn2)c1

MIC [6]: ≤ 0.03 µg/mL
MIC [7]: ≤ 0.03 µg/mL
MIC [8]: ≤ 0.03 µg/mL
MIC [9]: ≤ 0.03 µg/mL
MIC [10]: ≤ 0.03 µg/mL
MIC [11]: ≤ 0.03 µg/mL
MIC [12]: ≤ 0.03 µg/mL
MIC [13]: ≤ 0.03 µg/mL
MIC [14]: ≤ 0.03 µg/mL
MIC [15]: ≤ 0.03 µg/mL
MIC [16]: ≤ 0.03 µg/mL
MIC [17]: ≤ 0.03 µg/mL
MIC [18]: ≤ 0.03 µg/mL
SMILES: CCO/N=C1\C(=O)N(Cc2cn(CC(=O)N3CCC[C@@H]4CN(c5c(F)cc6c(=O)c(C(=O)O)cn(C7CC7)c6c5OC)C[C@@H]43)nn2)c2ccccc21

Reference: ChEMBL document CHEMBL5344406, “1,2,3-Triazole-containing hybrids with potential antibacterial activity against ESKAPE pathogens” (2022)
